Measured values taken from patent publication US8633204B2 (Pfizer Inc., priority 2006, dated 2014).

Each compound was assayed on PI3-K in BT20 cells (phosphorylation of AKT at serine 473) (assay: PI3-Kα Cellular Assay (AKT Ser473 phosphorylation ELISA in BT20 cells)). Conditions: Homo sapiens, BT-20, pAKT Ser473 ELISA, 1 hour incubation.
Assay type: cell-based, human
Protocol: Compounds of the present invention were evaluated for potency against PI3-K using a cellular assay as follows.
Healthy growing human breast cancer cells BT20 (PI3K mutated) are used for the assay. BT20 cells are grown in 10% FBS+GLN (1:100)+PS (1:100)+1 mM Sodium Pyruvate+0.1 mM Sodium Bicarbonate+Non-Essential Amino Acids Solution (1:100) MEM medium (MEM+all). […] The cells are re-suspended in 10% FBS MEM all and are centrifuged down at 1400 rpm for 5 minutes. The cells are re-suspended in 0.5% FBS MEM all and are counted on a cell counter. The cells are seeded at 25,000 cells/well in volume of 100 μL/well in 0.5% FBS MEM all in a 96 well flat-bottom plate. The negative control wells receive only 100 μL of 0.5% FBS MEM all medium without cells. The plate is incubated overnight in a cell culture incubator with 5% CO2 at 37° C.
On day 2, testing compounds are prepared in 0.5% FBS MEM all medium and serially diluted at 1:3 for 11 test concentrations. Each concentration of the compounds is tested in duplicate. The compound solutions are added at 25 μL/well to the corresponded wells in cell plate, and 25 μL/well of the vehicle (0.5% DMSO in 0.5% FBS MEM all) is added to the negative control wells (no cells) and the positive control wells (cells without compounds). The plate is incubated for 1 hour in a cell culture incubator with 5% CO2 at 37° C. After 1 hour of incubation, the medium is removed, 100 μL/well of cell lysis buffer is added into the cell plate, and shake for 15 minutes at room temperature. […] After 1 hour, empty the contents of the wells, wash the plate 4 times with the wash buffer, and add 100 μL of TMB substrate solution (catalog #T0440, Sigma) into each well, and incubate with gentle shaking at room temperature for […]. After 15 minutes of color development, add 100 μL of stop solution (1N hydrochloric acid) to each well, and read the plate at 450 nm on ELISA plate reader.

IC50 [nM]	Structure (SMILES)
3.49	Cc1nc(N)nc2c1cc(-c1cn[nH]c1)c(=O)n2C1CCCC1 [Compound 101, 2-amino-8-cyclopentyl-6-(1H-pyrazol-4-yl)-4-methylpyrido[2,3-d]pyrimidin-7(8H)-one]
8370	CCNc1nc(C)c2cc(CCC(N)=O)c(=O)n(C3CCCC3)c2n1 [Compound 118, 3-[8-cyclopentyl-2-(ethylamino)-4-methyl-7-oxo-7,8-dihydropyrido[2,3-d]pyrimidin-6-yl]propanamide]
10000	CCNc1nc(C)c2cc(CCC(=O)Nc3ccccn3)c(=O)n(C3CCCC3)c2n1 [Compound 122, 3-[8-cyclopenlyl-2-(ethylamino)-4-methyl-7-oxo-7,8-dihydropyrido[2,3-d]pyrimidin-6-yl]-N-pyridin-2-ylpropanamide]
9010	Cc1nc(N)nc2c1cc(-c1cccnc1N)c(=O)n2C1CCCC1 [Compound 125, 2-amino-6-(2-aminopyridin-3-yl)-8-cyclopentyl-4-methylpyrido[2,3-d]pyrimidin-7(8H)-one]
26.3	CCNc1nc(C)c2cc(-c3ccc(O)c(OC)c3)c(=O)n(C3CCCC3)c2n1 [Compound 136, 8-cyclopentyl-2-(ethylamino)-6-(4-hydroxy-3-methoxyphenyl)-4-methylpyrido[2,3-d]pyrimidin-7(8H)-one]
17	CCNc1nc(C)c2cc(-c3ccc(OC)nc3)c(=O)n(C3CCCC3)c2n1 [Compound 139, 8-cyclopentyl-2-(ethylamino)-6-(6-methoxypyridin-3-yl)-4-methylpyrido[2,3-d]pyrimidin-7(8H)-one]
0.793	CNc1nc(C)c2cc(-c3ccc(OC)nc3)c(=O)n(C3CCCC3)c2n1 [Compound 140]
10000	CCOC(=O)c1cccc(-c2cc3c(C)nc(NC)nc3n(C3CCCC3)c2=O)c1 [Compound 141, ethyl 3-[8-cyclopentyl-4-methyl-2-(methylamino)-7-oxo-7,8-dihydropyrido[2,3-d]pyrimidin-6-yl]benzoate]
3.05	CCNc1nc(C)c2cc(-c3cccc(O)c3)c(=O)n(C3CCCC3)c2n1 [Compound 144, 8-cyclopentyl-2-(ethylamino)-6-(3-hydroxyphenyl)-4-methylpyrido[2,3-d]pyrimidin-7(8H)-one]
305	Cc1nc(N)nc2c1cc(Br)c(=O)n2[C@H]1CC[C@H](O)CC1 [Compound 157, 2-amino-6-bromo-8-(trans-4-hydroxycyclohexyl)-4-methylpyrido[2,3-d]pyrimidin-7(8H)-one]
1040	Cc1nc(N)nc2c1cc(Br)c(=O)n2[C@@H]1CC[C@H](O)C1 [Compound 160, 2-amino-6-bromo-8-[(1R,3S)-3-hydroxycyclopentyl]-4-methylpyrido[2,3-d]pyrimidin-7(8H)-one]
934	Cc1nc(N)nc2c1cc(-c1cnn(C)c1)c(=O)n2[C@@H]1CC[C@H](O)C1 [Compound 161, 2-amino-8-[(1R,3S)-3-hydroxycyclopentyl]-4-methyl-6-(1-methyl-1H-pyrazol-4-yl)pyrido[2,3-d]pyrimidin-7(8H)-one]
47.2	Cc1nc(N)nc2c1cc(-c1cn[nH]c1)c(=O)n2[C@@H]1CC[C@H](O)C1 [Compound 162, 2-amino-8-[(1R,3S)-3-hydroxycyclopentyl]-4-methyl-6-(1H-pyrazol-4-yl)pyrido[2,3-d]pyrimidin-7(8H)-one]
1300	Cc1nc(N)nc2c1cc(-c1cnn(C)c1)c(=O)n2[C@@H]1CC[C@@H](O)C1 [Compound 164, 2-amino-8-[(1R,3R)-3-hydroxycyclopentyl]-4-methyl-6-(1-methyl-1H-pyrazol-4-yl)pyrido[2,3-d]pyrimidin-7(8H)-one]
262	Cc1nc(N)nc2c1cc(-c1cn[nH]c1)c(=O)n2[C@@H]1CC[C@@H](O)C1 [Compound 166, 2-amino-8-[(1R,3R)-3-hydroxycyclopentyl]-4-methyl-6-(1H-pyrazol-4-yl)pyrido[2,3-d]pyrimidin-7(8H)-one]
2360	Cc1nc(N)nc2c1cc(Br)c(=O)n2CC(C)(C)O [Compound 167, 2-amino-6-bromo-8-(2-hydroxy-2-methylpropyl)-4-methylpyrido[2,3-d]pyrimidin-7(8H)-one]
340	COc1ccc(-c2cc3c(C)nc(N)nc3n(CC(C)(C)O)c2=O)cn1 [Compound 169, 2-amino-8-(2-hydroxy-2-methylpropyl)-6-(6-methoxypyridin-3-yl)-4-methylpyrido[2,3-d]pyrimidin-7(8H)-one]

IC50 [nM]	Structure (SMILES)
116	Cc1nc(N)nc2c1cc(-c1cnc3[nH]ccc3c1)c(=O)n2CC(C)(C)O [Compound 172, 2-amino-8-(2-hydroxy-2-methylpropyl)-4-methyl-6-(1H-pyrrolo[2,3-b]pyridin-5-yl)pyrido[2,3-d]pyrimidin-7(8H)-one]
19	COc1ccc(-c2cc3c(C)nc(N)nc3n([C@H]3CC[C@@H](O)CC3)c2=O)cn1 [Compound 174, 2-amino-8-(cis-4-hydroxycyclohexyl)-6-(6-methoxypyridin-3-yl)-4-methylpyrido[2,3-d]pyrimidin-7(8H)-one]
4.66	Cc1nc(N)nc2c1cc(-c1cn[nH]c1)c(=O)n2C1CCC(=O)CC1 [Compound 176, 2-amino-4-methyl-8-(4-oxocyclohexyl)-6-(1H-pyrazol-4-yl)pyrido[2,3-d]pyrimidin-7(8H)-one]
8.02	COc1ncc(-c2cc3c(C)nc(N)nc3n([C@H]3CC[C@@H](O)CC3)c2=O)cc1F [Compound 177]
3.39	COc1ncc(-c2cc3c(C)nc(N)nc3n([C@H]3CC[C@H](OC)CC3)c2=O)cc1F [Compound 180, 2-amino-6-(5-fluoro-6-methoxypyridin-3-yl)-8-(trans-4-methoxycyclohexyl)-4-methylpyrido[2,3-d]pyrimidin-7(8H)-one]
17.6	Cc1nc(N)nc2c1cc(-c1ccc(N(C)C)nc1)c(=O)n2[C@H]1CC[C@@H](O)CC1 [Compound 181, 2-amino-6-[6-(dimethylamino)pyridin-3-yl]-8-(cis-4-hydroxycyclohexyl)-4-methylpyrido[2,3-d]pyrimidin-7(8H)-one]
4.69	CO[C@H]1CC[C@H](n2c(=O)c(-c3cn[nH]c3)cc3c(C)nc(N)nc32)CC1 [Compound 183, 2-amino-8-(trans-4-methoxycyclohexyl)-4-methyl-6-(1H-pyrazol-4-yl)pyrido[2,3-d]pyrimidin-7(8H)-one]
3.1	COc1ncc(-c2cc3c(C)nc(N)nc3n([C@H]3CC[C@H](O)CC3)c2=O)cc1F [Compound 191, 2-amino-6-[5-fluoro-6-methoxypyridin-3-yl)-8-(trans-4-hydroxycyclohexyl)-4-methylpyrido[2,3-d]pyrimidin-7(8H)-one]
71.4	COc1ccc(-c2cc3c(C)nc(N)nc3n(C3CCOCC3)c2=O)cn1 [Compound 200, 2-amino-6-(6-methoxypyridin-3-yl)-4-methyl-8-(tetrahydro-2H-pyran-4-yl)pyrido[2,3-d]pyrimidin-7(8H)-one]
94.9	Cc1nc(N)nc2c1cc(-c1cn[nH]c1)c(=O)n2CC1CCOC1 (stereo not drawn) [Compound 219, 2-amino-4-methyl-6-(1H-pyrazol-4-yl)-8-((tetrahydrofuran-3-yl)methyl)pyrido[2,3-d]pyrimidin-7(8H)-one]
145	COc1ccc(-c2cc3c(C)nc(N)nc3n(CC3CCOC3)c2=O)cn1 (stereo not drawn) [Compound 220, 2-amino-6-(6-methoxypyridin-3-yl)-4-methyl-8-((tetrahydrofuran-3-yl)methyl)pyrido[2,3-d]pyrimidin-7(8H)-one]
249	Cc1nc(N)nc2c1cc(-c1cn[nH]c1)c(=O)n2CC1CCCO1 (stereo not drawn) [Compound 223, 2-amino-4-methyl-6-(1H-pyrazol-4-yl)-8-((tetrahydrofuran-2-yl)methyl)pyrido[2,3-d]pyrimidin-7(8H)-one]
623	Cc1nc(N)nc2c1cc(-c1cnn(C)c1)c(=O)n2C1CCCC1 [Compound 235, 2-Amino-8-cyclopentyl-4-methyl-6-(1-methyl-1H-pyrazol-yl)-8H-pyrido[2,3-d]pyrimidin-7-one]
1270	CNc1nc(C)c2cc(-c3ccc(OC)nc3)c(=O)n(CCN)c2n1 [Compound 239, 8-(2-Amino-ethyl)-6-(6-methoxy-pyridin-3-yl)-4-methyl-2-methylamino-8H-pyrido[2,3-d]pyrimidin-7-one]
79.3	COc1ccc(-c2cc3c(C)nc(N)nc3n(CC(C)C)c2=O)cn1 [Compound 241, 2-Amino-8-isobutyl-6-(6-methoxy-pyridin-3-yl)-4-methyl-8H-pyrido[2,3-d]pyrimidin-7-one]
7.92	COc1ncc(-c2cc3c(C)nc(N)nc3n(C3CCCC3)c2=O)cc1F [Compound 254, 2-amino-8-cyclopentyl-6-(5-fluoro-6-methoxypyridin-3-yl)-4-methylpyrido[23-d]pyrimidin-7(8H)-one]
